Results reported in US4175081A, “5-Substituted thiadiazole ureas” (priority 1977, dated 1979).

How the values were obtained:
Corn (CN) [1] = assay: Pre-emergence herbicide test; type: in vivo; details: Zea mays, 336 h, 8 lb/acre, two weeks after treatment
Summary of the method: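 Visual injury/control ratings were made 2 weeks post-spray on corn pots seeded (4 seeds, seed-diameter depth) the day before treatment. Application was a belt-hood spray of 38 gal/acre delivering 8 lbs active per acre, with a 4 lbs/acre rate also formulated. Watering was by sub-irrigation throughout.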

Turnip (TP) [2] = assay: Post-emergence herbicide test; type: in vivo, Brassica sp.; details: Brassica rapa, post-emergence, 336 h; 8 lb/acre; two weeks after treatment
Summary of the method: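 A greenhouse post-emergence herbicide test on turnip. Seeds were sown on the surface of potting soil in 3' plastic pots, lightly covered with screened soil and watered from below. Planting was timed so seedlings had 1 or 2 true leaves above the cotyledons at spraying, done in a hood with a fixed nozzle. Control or injury was scored by eye after two weeks.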

Amaranth pigweed (PW) [3] = assay: Post-emergence herbicide test; type: in vivo, Amaranthus retroflexus; details: 336 h, 8 lb/acre, two weeks after treatment
Summary of the method: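 Visual injury or control ratings were made two weeks after spraying, with greenhouse watering by sub-irrigation only. Treatment was post-emergence, when pigweed seedlings had 1 or 2 true leaves, at 8 lbs active compound per acre (4 lbs/acre formulations also made) in a 38 gallons-per-acre spray volume.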

Bean (BN) [4] = assay: Pre-emergence herbicide test; type: in vivo, Phaseolus vulgaris var. Black Valentine; details: Phaseolus vulgaris, 336 h, 8 lb/acre, two weeks after treatment
Summary of the method: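 Visual injury/control ratings were taken two weeks post-spray on sub-irrigated Phaseolus vulgaris var. Black Valentine. Pots were sown a day before treatment. Pre-emergence spray delivered 8 lbs actual compound per acre (or 4 lbs/acre) at 38 gallons per acre.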

Cotton (CT) [5] = assay: Post-emergence herbicide test; type: in vivo, Gossypium hirsutum var. DPL smooth leaf; details: Gossypium hirsutum, post-emergence, 336 h; 8 lb/acre; two weeks after treatment
Summary of the method: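 This greenhouse post-emergence test measured how well spray treatments controlled cotton. Seedlings of Gossypium hirsutum var. DPL smooth leaf, with expanded cotyledons and a first true leaf 1' in length, were sprayed with 50 ml formulations in a belt-fed spray hood. They were then returned to the greenhouse and watered only by sub-irrigation. Injury was scored visually as % control after two weeks.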

Crabgrass (CG) [6] = assay: Post-emergence herbicide test; type: in vivo, Digitaria sanquinalis; details: Digitaria sanguinalis, post-emergence, 336 h; 8 lb/acre; two weeks after treatment
Summary of the method: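 Crabgrass (Digitaria sanquinalis) was surface seeded individually in 3' plastic pots of potting soil, covered with screened soil, and watered by sub-irrigation in greenhouse trays. Planting was staggered so seedlings reached the target stage together. Post-emergence sprays were applied in a hood with a removable belt and fixed nozzle, and control was visually rated two weeks after treatment.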

Amaranth pigweed (PW) [7] = assay: Pre-emergence herbicide test; type: in vivo, Amaranthus retroflexus; details: 336 h, 8 lb/acre, two weeks after treatment
Summary of the method: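 Visual injury or control ratings were made at two weeks on pre-emergence pots, sub-irrigated in the greenhouse. Seeds were sown a day before a hood spray delivering 8 lbs/acre (or 4 lbs/acre) of compound in 38 gallons per acre.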

Corn (CN) [8] = assay: Post-emergence herbicide test; type: in vivo; details: Zea mays, 336 h, 8 lb/acre, two weeks after treatment
Summary of the method: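 Greenhouse seedlings grown in potting soil and sprayed post-emergence at 8 lbs compound/acre (formulations also made for 4 lbs/acre) in 38 gallons/acre spray volume. Watering by sub-irrigation only. Injury or control rated visually two weeks after treatment.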

[9] = system: Yellow foxtail grass (YF); assay: Pre-emergence herbicide test; type: in vivo, Setaria glauca; details: Setaria, 336 h, 8 lb/acre, two weeks after treatment
Description: Yellow foxtail grass (YF)--Setaria glauca
All crop and weed species were planted individually in 3' plastic pots containing potting soil. Four seeds each of corn, cotton, and snapbeans were seeded to a depth equal to the diameter of the seed. All other species were surface seeded and sprinkled with screened soil in an amount sufficient to cover the seed. Immediately after planting, all pots were watered by sub-irrigation in greenhouse trays. Pots for the pre-emergence phase were seeded one day before treatment.
Compounds were tested at rates of application equivalent to 8 lbs. of actual compound per acre in a spray volume of 38 gallons per acre. Spray hood constants required to deliver the above volume are as follows:
Formulations for spray applications were prepared in 50 ml volumes with the following three components:
Formulations for the 4 lbs/acre rate were prepared by adjusting the amount of active ingredient accordingly.
Spray applications were made in a hood containing a removable belt and fixed spray nozzle. For passage through the spray hood, one pot of each specie (pre-emergence phase) was placed on the rear half of the flat. Treatments were removed to the greenhouse after spraying. Watering during the observation period was done only by sub-irrigation.
Two weeks after treatment, pre- and post-emergence injury or control was visually rated, and the results were as shown in the following tables. Pre-emergence data are provided in TABLE III and post-emergence data are provided in TABLE IV, for compounds having the formula illustrated in TABLE I. Correspondingly, pre-emergence and post-emergence data, respectively, are set forth in TABLES V AND VI, for compounds having the formula illustrated in TABLE II.

Turnip (TP) [10] = assay: Pre-emergence herbicide test; type: in vivo, Brassica sp.; details: Brassica rapa, pre-emergence, 336 h; 8 lb/acre; two weeks after treatment
Summary of the method: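 In this pre-emergence greenhouse test, turnip was seeded on the surface of potting soil in 3' plastic pots, lightly covered with screened soil, and watered from below. One day later the pots were sprayed in a belt-fed spray hood. Watering continued only by sub-irrigation, and percent control was visually scored two weeks after treatment.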

Barnyard grass (BG) [11] = assay: Pre-emergence herbicide test; type: in vivo; details: Echinochloa crus-galli, 336 h, 8 lb/acre, two weeks after treatment
Summary of the method: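 Greenhouse pre-emergence spray test: pots seeded one day before treatment received compound at rates of 8 or 4 lb/acre (38 gal/acre). Visual injury/control scores for Echinochloa crus-galli taken at two weeks, with watering by sub-irrigation only.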

Barnyard grass (BG) [12] = assay: Post-emergence herbicide test; type: in vivo; details: Echinochloa crus-galli, 336 h, 8 lb/acre, two weeks after treatment
Summary of the method: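 Greenhouse pot-grown barnyard grass seedlings sprayed post-emergence at 8 lbs active compound per acre (some at 4 lbs/acre) in 38 gallons per acre, then sub-irrigated. Injury or control rated visually two weeks after treatment.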

[13] = system: Yellow foxtail grass (YF); assay: Post-emergence herbicide test; type: in vivo, Setaria glauca; details: Setaria, 336 h, 8 lb/acre, two weeks after treatment
Summary of the method: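 Visual rating of injury/control made 2 weeks post-spray. Seedlings at a uniform growth stage in soil-filled pots received a hood spray of 8 lbs/acre active compound, 38 gallons/acre volume, with a 4 lbs/acre rate also formulated. Watering was by sub-irrigation only.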

Johnson grass (JG) [14] = assay: Pre-emergence herbicide test; type: in vivo, Sorgum helepense; details: Sorghum halepense, 336 h, 8 lb/acre, two weeks after treatment
Summary of the method: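 Visual injury or control rating two weeks post-treatment, after pre-emergence spray of 8 or 4 lbs active per acre (38 gal/acre) onto pots sown the previous day. Greenhouse watering by sub-irrigation only.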

Crabgrass (CG) [15] = assay: Pre-emergence herbicide test; type: in vivo, Digitaria sanquinalis; details: Digitaria sanguinalis, pre-emergence, 336 h; 8 lb/acre; two weeks after treatment
Summary of the method: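 Crabgrass (Digitaria sanquinalis) was surface seeded in 3' plastic pots of potting soil, covered with screened soil, and watered by sub-irrigation in greenhouse trays. Pots were seeded one day before spraying in a hood with a moving belt and fixed nozzle. Plants stayed in the greenhouse on sub-irrigation, and pre-emergence control was rated visually two weeks after treatment.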

Cotton (CT) [16] = assay: Pre-emergence herbicide test; type: in vivo, Gossypium hirsutum var. DPL smooth leaf; details: Gossypium hirsutum, 336 h, 8 lb/acre, two weeks after treatment
Summary of the method: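 Visual injury/control ratings were taken at two weeks post-spray. Pots seeded a day earlier received compound pre-emergence at 8 lbs/acre, or 4 lbs/acre, in a 38 gallon/acre spray volume, and were then held in the greenhouse, watered only from below.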

Johnson grass (JG) [17] = assay: Post-emergence herbicide test; type: in vivo, Sorgum helepense; details: Sorghum halepense, 336 h, 8 lb/acre, two weeks after treatment
Summary of the method: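 Visual injury or control scores taken 2 weeks after a post-emergence spray of pot-grown plants. Application was 8 lbs/acre (or 4 lbs/acre) in 38 gal/acre. Plants were held in the greenhouse with sub-irrigation only.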

Bean (BN) [18] = assay: Post-emergence herbicide test; type: in vivo, Phaseolus vulgaris var. Black Valentine; details: Phaseolus vulgaris, post-emergence, 336 h; 8 lb/acre; two weeks after treatment
Summary of the method: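 Bean seedlings (Phaseolus vulgaris var. Black Valentine) were grown in potting soil in 3' pots until the primary leaves expanded. They were then sprayed under a hood with a removable belt and fixed nozzle, using 50 ml formulations. Afterward they were returned to the greenhouse and watered only by sub-irrigation. Percent control was judged visually two weeks after treatment.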

| SMILES | pest or weed control at 8966.8 g/ha (Corn (CN) [1]) [%] | pest or weed control at 8966.8 g/ha (Turnip (TP) [2]) [%] | pest or weed control at 8966.8 g/ha (Amaranth pigweed (PW) [3]) [%] | pest or weed control at 8966.8 g/ha (Bean (BN) [4]) [%] | pest or weed control at 8966.8 g/ha (Cotton (CT) [5]) [%] | pest or weed control at 8966.8 g/ha (Crabgrass (CG) [6]) [%] | pest or weed control at 8966.8 g/ha (Amaranth pigweed (PW) [7]) [%] | pest or weed control at 8966.8 g/ha (Corn (CN) [8]) [%] | pest or weed control at 8966.8 g/ha [9] [%] | pest or weed control at 8966.8 g/ha (Turnip (TP) [10]) [%] | pest or weed control at 8966.8 g/ha (Barnyard grass (BG) [11]) [%] | pest or weed control at 8966.8 g/ha (Barnyard grass (BG) [12]) [%] | pest or weed control at 8966.8 g/ha [13] [%] | pest or weed control at 8966.8 g/ha (Johnson grass (JG) [14]) [%] | pest or weed control at 8966.8 g/ha (Crabgrass (CG) [15]) [%] | pest or weed control at 8966.8 g/ha (Cotton (CT) [16]) [%] | pest or weed control at 8966.8 g/ha (Johnson grass (JG) [17]) [%] | pest or weed control at 8966.8 g/ha (Bean (BN) [18]) [%] |
| --- | --- | --- | --- | --- | --- | --- | --- | --- | --- | --- | --- | --- | --- | --- | --- | --- | --- | --- |
| O=C(Nc1ccccc1)Nc1nnc(C(F)(F)F)s1 [Example 14] | 50 | 10 | 90 | 100 | 50 | 10 | 90 | 50 | 10 | 10 | 10 | 10 | 10 | 20 | 10 | 50 | 20 | 100 |
| CCNC(=O)Nc1nnc(SC)s1 [Example 28] | 10 | 50 | 30 | 80 | 70 | 20 | 30 | 20 | 30 | 0 | 50 | 20 | 20 | 20 | 40 | 40 | 20 | 50 |
| CCCNC(=O)Nc1nnc(SC)s1 [Example 29] | 30 | 40 | 40 | 80 | 60 | 30 | 10 | 20 | 10 | 0 | 10 | 20 | 20 | 10 | 20 | 30 | 20 | 100 |
| C=CCNC(=O)Nc1nnc(SC)s1 [Example 31] | 10 | 50 | 90 | 80 | 100 | 30 | 20 | 20 | 70 | 30 | 30 | 20 | 30 | 20 | 70 | 30 | 30 | 100 |
| CCSc1nnc(NC(=O)NC)s1 [Example 32] | 70 | 90 | 100 | 80 | 100 | 100 | 100 | 60 | 90 | 90 | 90 | 100 | 90 | 70 | 90 | 50 | 90 | 100 |
